Reference: patent US6410575B1, “Viral treatment” (The Procter & Gamble Company, priority 1999, dated 2002)
Where “and” joins values, the source holds several entries; their conditions need not be identical. Equal entries are not always repeated.

What was measured:
Type in all cases: cell-based
HIV-2 virus, CEMROD = assay: In vitro screening test against HIV-2, reverse transcriptase activity; parameters: Reverse Transcriptase Activity, sample / Reverse Transcriptase Activity, average: unit not given here
Source text: The results of one test are shown below

HIV-2 cell line, CEMROD = assay: Long term in vitro study, CEMROD
Procedure: (§1) Toxicity quantification involves the XTT-based evaluation. Assays were designed to characterize the long term effects of the compounds on virus production and to characterize the longer term effects of the compounds on virus production from chronically HIV infected cells.
CEM-SS cells chronically infected with HIV isolate, for example SKI (CEM-SKI) are cultured in RPMI1640 tissue culture medium supplemented with 10% fetal bovine serum and antibiotics. […] CEM-SKI or other infected cells with no added drug are used as the control cells.
Cells are allowed to grow to a density of approximately 1×10^6 cells/ml and are then passaged at a 1:10 dilution. […] The drug concentration in the flask is then increased two-fold and the cells maintained as above.
The cell populations contain integrated copies of the HIV genome and constitutively produce HIV at relatively high levels or are latently infected and only produce virus after stimulation with phorbol esters, tumor necrosis factor or IL6(U1 and ACH2). Reductions in virus products were observed when quantifying supernatant reverse transcriptase activity.
The results with CEMROD cells was reported at weekly intervals.
The CEMROD cell line is a viral strain of the CEMSS cell line.

CEMROD = assay: Toxicity values in the HIV-2 screening test; parameters: Toxicity Values, sample / Toxicity Values, average: unit not given here
Source text: as §1

## NC(=S)Nc1nsc(-c2ccccc2)n1
HIV-2 virus, CEMROD; 0.32 μg/ml
  % virus control: 113.2%
  Reverse Transcriptase Activity, average: 5451
  Reverse Transcriptase Activity, sample: 4664 and 6972 and 4717
HIV-2 virus, CEMROD; 1 μg/ml
  % virus control: 95.5%
  Reverse Transcriptase Activity, average: 4601
  Reverse Transcriptase Activity, sample: 4005 and 4407 and 5392
HIV-2 virus, CEMROD; 1.0 μg/ml
  % virus control: 66.6%
  Reverse Transcriptase Activity, average: 3208
  Reverse Transcriptase Activity, sample: 3001 and 3077 and 3547
HIV-2 virus, CEMROD; 3.2 μg/ml
  % virus control: 74.9%
  Reverse Transcriptase Activity, average: 3606
  Reverse Transcriptase Activity, sample: 4166 and 3318 and 3334
HIV-2 virus, CEMROD; 32 μg/ml
  % virus control: 36.4%
  Reverse Transcriptase Activity, average: 1753
  Reverse Transcriptase Activity, sample: 1832 and 1550 and 1876
HIV-2 virus, CEMROD; 100 μg/ml
  % virus control: 1.2%
  Reverse Transcriptase Activity, average: 57
  Reverse Transcriptase Activity, sample: 72 and 48 and 52
HIV-2 cell line, CEMROD; 7 μg/ml, day 4
  virus production (supernatant reverse transcriptase activity): 6593
HIV-2 cell line, CEMROD; 7 μg/ml, day 11
  virus production (supernatant reverse transcriptase activity): 8676
HIV-2 cell line, CEMROD; 7 μg/ml, day 18
  virus production (supernatant reverse transcriptase activity): 10912
HIV-2 cell line, CEMROD; 7 μg/ml, day 25
  virus production (supernatant reverse transcriptase activity): 9356
HIV-2 cell line, CEMROD; 7 μg/ml, day 32
  virus production (supernatant reverse transcriptase activity): 8803
HIV-2 cell line, CEMROD; 7 μg/ml, day 39
  virus production (supernatant reverse transcriptase activity): 6655
HIV-2 cell line, CEMROD; 7 μg/ml, day 46
  virus production (supernatant reverse transcriptase activity): 8280
HIV-2 cell line, CEMROD; 7 μg/ml, day 53
  virus production (supernatant reverse transcriptase activity): 7549
HIV-2 cell line, CEMROD; 15 μg/ml, day 4
  virus production (supernatant reverse transcriptase activity): 6815
HIV-2 cell line, CEMROD; 15 μg/ml, day 11
  virus production (supernatant reverse transcriptase activity): 8202
HIV-2 cell line, CEMROD; 15 μg/ml, day 18
  virus production (supernatant reverse transcriptase activity): 10389
HIV-2 cell line, CEMROD; 15 μg/ml, day 25
  virus production (supernatant reverse transcriptase activity): 7816
HIV-2 cell line, CEMROD; 15 μg/ml, day 32
  virus production (supernatant reverse transcriptase activity): 6672
HIV-2 cell line, CEMROD; 15 μg/ml, day 39
  virus production (supernatant reverse transcriptase activity): 7087
HIV-2 cell line, CEMROD; 15 μg/ml, day 46
  virus production (supernatant reverse transcriptase activity): 6457
HIV-2 cell line, CEMROD; 15 μg/ml, day 53
  virus production (supernatant reverse transcriptase activity): 6544
HIV-2 cell line, CEMROD; 30 μg/ml, day 4
  virus production (supernatant reverse transcriptase activity): 6626
HIV-2 cell line, CEMROD; 30 μg/ml, day 11
  virus production (supernatant reverse transcriptase activity): 6582
HIV-2 cell line, CEMROD; 30 μg/ml, day 18
  virus production (supernatant reverse transcriptase activity): 7494
HIV-2 cell line, CEMROD; 30 μg/ml, day 25
  virus production (supernatant reverse transcriptase activity): 4421
HIV-2 cell line, CEMROD; 30 μg/ml, day 32
  virus production (supernatant reverse transcriptase activity): 4056
HIV-2 cell line, CEMROD; 30 μg/ml, day 39
  virus production (supernatant reverse transcriptase activity): 2118
HIV-2 cell line, CEMROD; 30 μg/ml, day 46
  virus production (supernatant reverse transcriptase activity): 4117
HIV-2 cell line, CEMROD; 30 μg/ml, day 53
  virus production (supernatant reverse transcriptase activity): 4779
CEMROD; 0.32 μg/ml
  % cell control: 101.6%
  Toxicity Values, average: 1.197
  Toxicity Values, sample: 1.181 and 1.206 and 1.203
CEMROD; 1 μg/ml
  % cell control: 90.9%
  Toxicity Values, average: 1.071
  Toxicity Values, sample: 1.055 and 1.093 and 1.066
CEMROD; 1.0 μg/ml
  % cell control: 75.6%
  Toxicity Values, average: 0.891
  Toxicity Values, sample: 0.871 and 0.881 and 0.921
CEMROD; 3.2 μg/ml
  % cell control: 83.1%
  Toxicity Values, average: 0.979
  Toxicity Values, sample: 0.987 and 0.984 and 0.965
CEMROD; 32 μg/ml
  % cell control: 43.2%
